From patent US9670172B2, “Heterocyclic compounds and methods of use” (Medivation Technologies, Inc., priority 2014, dated 2017) come the findings set out here.

Where two headings read alike, the source gives them in different places. Some results are limits rather than exact numbers.

In data set [1] the test system is SREBP2. As to the kind of experiment: SREBP2 cleavage in HEPG2 cells (Western blot normalized to actin). The note with it: Homo sapiens, HepG2 cells, read-out: Average SREBP2 cleavage (% Inhibition, n = 3); for inhibition at 20 µM: 24 h, 1 day, DMEM without FBS. The class given is cell-based. The protocol: Average SREBP2 cleavage in HEPG2 cells was measured in the presence of compounds disclosed in Table 1. HepG2 cells were seeded at 500,000 cells per well in 6-well plates in DMEM supplemented with 10% FBS. After 2 days, cells were treated with compounds (20 μM) for 1 day in DMEM without FBS. Western blots were normalized with respect to actin.
The results are shown in Table 3 as percent inhibition@20 μM, and in Table 4 as percent inhibition@5 μM.
Background: A western blot detects proteins with antibodies after separation by electrophoresis.

The nature of data set [2]: HepG2 cell viability by MTS. Type of data set: cell-based. Conditions: human, HepG2 cells, 3 days, DMEM without FBS, MTS, read-out: Average Viability (% Inhibition, n = 3). The protocol:
For viability measurements, HepG2 cells were seeded at 5,000 cells per well in 96-well plates in DMEM supplemented with 10% FBS. After 1 day in culture, cells were treated with compounds (20 μM & 5 μM) for 3 days in DMEM without FBS. Viability was measured by MTS. Treatment with compounds (20 μM & 5 μM) was carried out in medium without FBS, and viability was measured by MTS. […]

Data set [3] can be described thus: PK parameters for representative compounds (i.v. and p.o.). The note with it: in vivo; for half-life: read-out: Terminal t1/2 (converted). From the text: Standard PK parameters were collected in Mouse and Dog for Compound #37 in mouse (FIG. 4A) and dog (FIG. 4B).

In the case of `O=S(=O)(Nc1ccc(-c2csc(-c3cccc4[nH]ccc34)n2)c(Cl)c1)C(F)(F)F` [Compound 80, N-{3-chloro-4-[2-(1H-indol-4-yl)-1,3-thiazol-4-yl]phenyl}-1,1,1-trifluoromethanesulfonamide], the inhibition at 5 µM in data set [1] amounted to 90%. Moreover, the cytotoxicity at 3 days, 5 μM in data set [2] stood at 86%. For the same compound, in data set [3] (iv, i.v. @ 2 mg/kg), the AUC(0-t) was 8.94 µM·h, the Cmax was determined as 3.63 µM, the Vd was 1.72 L/kg and the clearance is 70.8 mL/min/kg. The half-life in data set [3] (iv, i.v. @ 2 mg/kg) is 2.8 h. For the same compound, in data set [3] (po, p.o. @ 10 mg/kg), the AUC(0-t) was determined as 130 µM·h, the maximum concentration (Cmax) was 20.6 µM, the Tmax was 4 h and the bioavailability is 291%. In addition, the half-life in data set [3] (po, p.o. @ 10 mg/kg) is above 8 h.

On to `O=S(=O)(Nc1ccc(-c2csc(-c3cccc(N4CCCCC4)c3)n2)c(Cl)c1)C(F)(F)F` [Compound 88, N-(3-chloro-4-{2-[3-(piperidin-1-yl)phenyl]-1,3-thiazol-4-yl}phenyl)-1,1,1-trifluoromethanesulfonamide], for which the inhibition at 5 µM in data set [1] is 90%. For the same compound, the cytotoxicity at 3 days, 5 μM in data set [2] stood at 19%. Also, in data set [3] (iv, i.v. @ 2 mg/kg), the AUC(0-t) is 10.6 µM·h, the highest level (Cmax) was 3.44 µM, the Vd amounted to 1.45 L/kg and the clearance is 5 mL/min/kg. Also, the half-life in data set [3] (iv, i.v. @ 2 mg/kg) was 3.35 h. In data set [3] (po, p.o. @ 10 mg/kg), the AUC(0-t) turned out to be 51.5 µM·h, the peak level (Cmax) was 8.41 µM, the Tmax was 2 h and the bioavailability was 96.8%. Further, in data set [3] (po, p.o. @ 10 mg/kg), the half-life was above 8 h.

`O=S(=O)(Nc1ccc(-c2csc(-c3ccnc(Cc4ccccc4)c3)n2)c(Cl)c1)C(F)(F)F` [Compound 60, N-{4-[2-(2-benzylpyridin-4-yl)-1,3-thiazol-4-yl]-3-chlorophenyl}-1,1,1-trifluoromethanesulfonamide]: the inhibition at 20 µM in data set [1] came to 99%. Also, in data set [2], the cytotoxicity at 3 days, 20 μM came to 100%. In addition, in data set [3] (iv, i.v. @ 2 mg/kg), the AUC(0-t) stood at 12.6 µM·h, the Cmax was 3.38 µM, the Vd is 1.28 L/kg and the clearance was 4.8 mL/min/kg. For the same compound, the half-life in data set [3] (iv, i.v. @ 2 mg/kg) is 3.08 h. Besides, in data set [3] (po, p.o. @ 10 mg/kg), the AUC(0-t) turned out to be 57.1 µM·h, the Cmax is 6.58 µM, the Tmax turned out to be 4 h and the bioavailability was 90.2%. In addition, the half-life in data set [3] (po, p.o. @ 10 mg/kg) was above 8 h.

`O=S(=O)(Nc1ccc(-c2csc(-c3ccc4c(c3)CCO4)n2)c(Cl)c1)C(F)(F)F` [Compound 82, N-{3-chloro-4-[2-(2,3-dihydro-1-benzofuran-5-yl)-1,3-thiazol-4-yl]phenyl}-1,1,1-trifluoromethanesulfonamide]: the inhibition at 5 µM in data set [1] turned out to be 77%. Besides, the cytotoxicity at 3 days, 5 μM in data set [2] is 82%. Also, in data set [3] (iv, i.v. @ 2 mg/kg), the exposure AUC(0-t) is 25.4 µM·h, the Cmax worked out at 12.6 µM, the Vd turned out to be 0.719 L/kg and the clearance is 2.28 mL/min/kg. For the same compound, the half-life in data set [3] (iv, i.v. @ 2 mg/kg) was 3.64 h. For the same compound, in data set [3] (po, p.o. @ 10 mg/kg), the AUC(0-t) amounted to 175 µM·h, the Cmax came to 25.8 µM, the Tmax amounted to 4 h and the bioavailability is 138%. Besides, the half-life in data set [3] (po, p.o. @ 10 mg/kg) was above 8 h.

Turning to `O=S(=O)(Nc1ccc(-c2csc(-c3ccnc(CC4CCCCC4)c3)n2)c(Cl)c1)C(F)(F)F` [Compound 70, N-(3-chloro-4-{2-[2-(cyclohexylmethyl)pyridin-4-yl]-1,3-thiazol-4-yl}phenyl)-1,1,1-trifluoromethanesulfonamide], the inhibition at 5 µM in data set [1] is 73%. For the same compound, the cytotoxicity at 3 days, 5 μM in data set [2] is 100%. Also, in data set [3] (iv, i.v. @ 2 mg/kg), the AUC(0-t) is 2.2 µM·h, the Cmax was 4 µM, the Vd stood at 5.22 L/kg and the clearance was 54.7 mL/min/kg. Moreover, the half-life in data set [3] (iv, i.v. @ 2 mg/kg) is 1.1 h. In data set [3] (po, p.o. @ 10 mg/kg), the AUC(0-t) turned out to be 5.19 µM·h, the peak level (Cmax) was 2.2 µM, the Tmax was found to be 0.5 h and the bioavailability worked out at 46.4%. Further, the half-life in data set [3] (po, p.o. @ 10 mg/kg) was 1.04 h.

With `O=S(=O)(Nc1ccc(-c2csc(-c3ccnc(N4CCCCC4)c3)n2)c(Cl)c1)C(F)(F)F` [Compound 85, N-(3-chloro-4-{2-[2-(piperidin-1-yl)pyridin-4-yl]-1,3-thiazol-4-yl}phenyl)-1,1,1-trifluoromethanesulfonamide], in data set [1], the inhibition at 5 µM stood at 82%. For the same compound, the cytotoxicity at 3 days, 5 μM in data set [2] came out at 93%. In data set [3] (iv, i.v. @ 2 mg/kg), the AUC(0-t) came out at 0.655 µM·h, the peak level (Cmax) was 0.241 µM, the Vd turned out to be 27.3 L/kg and the clearance was 77.2 mL/min/kg. In addition, the half-life in data set [3] (iv, i.v. @ 2 mg/kg) was 4.08 h. In data set [3] (po, p.o. @ 10 mg/kg), the AUC(0-t) is 2.27 µM·h, the concentration peaked (Cmax) at 0.45 µM, the Tmax came to 2 h and the bioavailability was determined as 69.3%. Moreover, the half-life in data set [3] (po, p.o. @ 10 mg/kg) is above 8 h.

For the compound `O=S(=O)(Nc1ccc(-c2csc(-c3ccnc(CCC(F)(F)F)c3)n2)c(Cl)c1)C(F)(F)F` [Compound 64, N-(3-chloro-4-{2-[2-(3,3,3-trifluoropropyl)pyridin-4-yl]-1,3-thiazol-4-yl}phenyl)-1,1,1-trifluoromethanesulfonamide], in data set [1], the inhibition at 20 µM was 97%. Besides, the cytotoxicity at 3 days, 20 μM in data set [2] is 100%. In addition, in data set [3] (iv, i.v. @ 2 mg/kg), the AUC(0-t) was determined as 38.5 µM·h, the concentration peaked (Cmax) at 7.13 µM, the Vd came out at 1.95 L/kg and the clearance was 0.917 mL/min/kg. Besides, in data set [3] (po, p.o. @ 10 mg/kg), the AUC(0-t) came to 526 µM·h, the highest level (Cmax) was 32.1 µM, the time to peak (Tmax) was 24 h and the bioavailability worked out at 273%. For the same compound, the half-life in data set [3] (po, p.o. @ 10 mg/kg) is above 8 h.

Turning to `O=S(=O)(Nc1ccc(-c2csc(-c3cncc4ccccc34)n2)c(Cl)c1)C(F)(F)F` [Compound 75, N-{3-chloro-4-[2-(isoquinolin-4-yl)-1,3-thiazol-4-yl]phenyl}-1,1,1-trifluoromethanesulfonamide], in data set [1], the inhibition at 5 µM amounted to 55%. Moreover, the cytotoxicity at 3 days, 5 μM in data set [2] turned out to be 88%.

On to `O=C(c1ccc(-c2nc(-c3ccc(NS(=O)(=O)C(F)(F)F)cc3Cl)cs2)cc1)N1CCCCC1` [Compound 67, N-(3-chloro-4-{2-[4-(piperidine-1-carbonyl)phenyl]-1,3-thiazol-4-yl}phenyl)-1,1,1-trifluoromethanesulfonamide], for which the inhibition at 20 µM in data set [1] turned out to be 3%. For the same compound, in data set [2], the cytotoxicity at 3 days, 20 μM was found to be 20%.

On to `O=S(=O)(Nc1ccc(-c2csc(-c3ccccc3CO)n2)c(Cl)c1)C(F)(F)F` [Compound 84, N-(3-chloro-4-{2-[2-(hydroxymethyl)phenyl]-1,3-thiazol-4-yl}phenyl)-1,1,1-trifluoromethanesulfonamide], for which the inhibition at 5 µM in data set [1] is 20%. Also, the cytotoxicity at 3 days, 5 μM in data set [2] worked out at 18%.

As to `O=S(=O)(Nc1ccc(-c2csc(-c3cccc4ccccc34)n2)c(Cl)c1)C(F)(F)F` [Compound 71, N-{3-chloro-4-[2-(naphthalen-1-yl)-1,3-thiazol-4-yl]phenyl}-1,1,1-trifluoromethanesulfonamide], the inhibition at 5 µM in data set [1] worked out at 77%. The cytotoxicity at 3 days, 5 μM in data set [2] was 97%. In data set [3] (iv, i.v. @ 2 mg/kg), this compound had an AUC(0-t) of 13.6 µM·h, a Cmax of 3.57 µM, a Vd of 1.27 L/kg and a clearance of 4.18 mL/min/kg. Further, the half-life in data set [3] (iv, i.v. @ 2 mg/kg) is 3.5 h. In data set [3] (po, p.o. @ 10 mg/kg), the AUC(0-t) turned out to be 51.5 µM·h, the concentration peaked (Cmax) at 7.57 µM, the Tmax is 4 h and the bioavailability came out at 75.9%. Further, the half-life in data set [3] (po, p.o. @ 10 mg/kg) is above 8 h.

In the case of `O=S(=O)(Nc1ccc(-c2csc(-c3ccnc4[nH]ccc34)n2)c(Cl)c1)C(F)(F)F` [Compound 87, N-[3-chloro-4-(2-{1H-pyrrolo[2,3-b]pyridin-4-yl}-1,3-thiazol-4-yl)phenyl]-1,1,1-trifluoromethanesulfonamide], the inhibition at 5 µM in data set [1] came out at 50%. Further, in data set [2], the cytotoxicity at 3 days, 5 μM came to 9%.

`O=S(=O)(Nc1ccc(-c2csc(-c3ccc4cc[nH]c4c3)n2)c(Cl)c1)C(F)(F)F` [Compound 72, N-{3-chloro-4-[2-(1H-indol-6-yl)-1,3-thiazol-4-yl]phenyl}-1,1,1-trifluoromethanesulfonamide]: the inhibition at 5 µM in data set [1] stood at 61%. Moreover, in data set [2], the cytotoxicity at 3 days, 5 μM amounted to 94%.

As a reminder, the inhibition is the share of the control response that was lost under treatment. By AUC(0-t) is commonly meant the area under the concentration-time curve up to a stated or last time point. The term Cmax denotes the peak of the concentration-time curve. As a reminder, the Tmax is the time from dosing to the highest level.
